Measurements taken from patent US4383113A, “Agricultural sulfonamides” (E. I. Du Pont de Nemours and Company, priority 1981, dated 1983).

What was measured:
Parameters in all cases: key: 0 = no effect, 10 = maximum effect; letter = response symbol
[1] = test system: barnyardgrass; experiment: Test A pre-emergence; format: in vivo, Echinochloa crusgalli
Excerpt: (§1) The activity of these compounds was discovered in a number of greenhouse and field tests. The ratings are based on a numerical scale extending from 0=no effect, to 10=maximum effect. The accompanying descriptive symbols have the following meanings:
(§2) Seeds of crabgrass (Digitaria spp.), barnyardgrass (Echinochloa crusgalli), wild oats (Avena fatua), cassia (Cassia tora), morningglory (Ipomoea spp.), cocklebur (Xanthium spp.), sorghum, corn, soybean, rice, wheat and nutsedge tubers (Cyperus rotundus) were planted in a growth medium and treated preemergence with a nonphytotoxic solvent solution of the compounds of Table XII. Other batches of seeds and tubers for all of the foregoing weed and crop plants were planted at the same time as controls. The control plantings were untreated; i.e., neither any compound nor any solvent was applied. At the same time, cotton having five leaves (including cotyledonary ones), bush beans with the third trifoliate leaf expanding, crabgrass with two leaves, barnyardgrass with two leaves, wild oats with two leaves, cassia with three leaves (including cotyledonary ones), morningglory with four leaves (including the cotyledonary ones), cocklebur with four leaves (including the cotyledonary ones), sorghum with four leaves, corn with four leaves, soybean with two cotyledonary leaves, rice with three leaves, wheat with one leaf, and nutsedge with three-five leaves were sprayed with a nonphytotoxic solvent solution of the compounds of Table XII. Other groups of all the same weed and crop plants were sprayed with the same nonphytotoxic solvent so as to provide control plants. Preemergence and postemergence treated plants and controls were maintained in a greenhouse for sixteen days, then all treated plants were compared with their respective controls and rated visually for response to treatment.

[2] = test system: corn; experiment: Test A pre-emergence; format: in vivo
Excerpt: as §1, §2

[3] = test system: soybean; experiment: Test A pre-emergence; format: in vivo
Excerpt: as §1, §2

[4] = test system: wheat; experiment: Test A pre-emergence; format: in vivo
Excerpt: as §1, §2

[5] = test system: sorghum; experiment: Test A pre-emergence; format: in vivo
Excerpt: as §1, §2

[6] = test system: wild oats; experiment: Test A pre-emergence; format: in vivo, Avena fatua
Excerpt: as §1, §2

[7] = test system: morningglory; experiment: Test A pre-emergence; format: in vivo, Ipomoea spp.
Excerpt: as §1, §2

[8] = test system: cassia; experiment: Test A pre-emergence; format: in vivo, Cassia tora
Excerpt: as §1, §2

[9] = test system: cocklebur; experiment: Test A pre-emergence; format: in vivo, Xanthium spp.
Excerpt: as §1, §2

[10] = test system: crabgrass; experiment: Test A pre-emergence; format: in vivo, Digitaria spp.
Excerpt: as §1, §2

[11] = test system: bush bean; experiment: Test A post-emergence; format: in vivo, bush beans; settings: 0.4 kg/ha
[12] = test system: corn; experiment: Test A post-emergence; format: in vivo; settings: 0.4 kg/ha
Excerpt: as §1, §2

[13] = test system: cotton; experiment: Test A post-emergence; format: in vivo; settings: 0.4 kg/ha
Excerpt: as §1, §2

[14] = test system: nutsedge; experiment: Test A post-emergence; format: in vivo, Cyperus rotundus; settings: 0.4 kg/ha
Excerpt: as §1, §2

[15] = test system: cassia; experiment: Test A post-emergence; format: in vivo, Cassia tora; settings: 0.4 kg/ha
Excerpt: as §1, §2

[16] = test system: morningglory; experiment: Test A post-emergence; format: in vivo, Ipomoea spp.; settings: 0.4 kg/ha
Excerpt: as §1, §2

[17] = test system: cocklebur; experiment: Test A post-emergence; format: in vivo, Xanthium spp.; settings: 0.4 kg/ha
Excerpt: as §1, §2

[18] = test system: wild oats; experiment: Test A post-emergence; format: in vivo, Avena fatua; settings: 0.4 kg/ha
Excerpt: as §1, §2

Row | Structure (SMILES) | response rating ([1]; 0.4 kg/ha) | response rating ([3]; 0.4 kg/ha) | response rating ([4]; 0.4 kg/ha) | response rating ([7]; 0.4 kg/ha) | response rating ([8]; 0.4 kg/ha) | response rating ([9]; 0.4 kg/ha) | response rating ([2]; 0.4 kg/ha) | response rating ([5]; 0.4 kg/ha) | other results
1 | COC(=O)c1ccccc1S(=O)(=O)NC(=O)Nc1nnc(C)c(C)n1 [drawing 484] | – | – | – | – | – | – | – | – | response rating ([1]; 2 kg/ha): 9H; response rating ([2]; 2 kg/ha): 9G; response rating ([3]; 2 kg/ha): 9H; response rating ([4]; 2 kg/ha): 9H; response rating ([5]; 2 kg/ha): 9H; response rating ([6]; 2 kg/ha): 9H; response rating ([7]; 2 kg/ha): 9C; response rating ([8]; 2 kg/ha): 9C; response rating ([9]; 2 kg/ha): 9G
2 | CCCCOC(=O)c1ccccc1S(=O)(=O)NC(=O)Nc1nc(OC)cc(OC)n1 [drawing 506] | 9H | 7H | 9G | 9G | 9G | 9G | – | – | response rating ([10]; 0.4 kg/ha): 8G; response rating ([10]; 2 kg/ha): 7G; response rating ([1]; 2 kg/ha): 9H; response rating ([2]; 2 kg/ha): 9G; response rating ([3]; 2 kg/ha): 9H; response rating ([4]; 2 kg/ha): 9G; response rating ([5]; 2 kg/ha): 9H; response rating ([6]; 0.4 kg/ha): 7G; response rating ([6]; 2 kg/ha): 8G; response rating ([8]; 2 kg/ha): 9C; response rating ([9]; 2 kg/ha): 9G
3 | COC(=O)c1ccccc1S(=O)(=O)NC(=O)Nc1nc(OC)cc(OC(C)C(=O)OC)n1 (stereo not shown) [drawing 535] | – | 9H | – | – | – | – | 10H | 10H | –
4 | COc1nc(C)nc(NC(=O)NS(=O)(=O)c2ccccc2C(=O)OC(C)C)n1 [drawing 492] | – | 9H | 5G | 9G | – | 9G | 9G | – | response rating ([6]; 0.4 kg/ha): 9G
5 | COC(=O)c1cc(Cl)ccc1S(=O)(=O)NC(=O)Nc1nc(OC)cc(OC)n1 [drawing 500] | 9H | 9H | 3G | 9G | – | 9G | 9H | 9H | response rating ([10]; 0.4 kg/ha): 5G; response rating ([6]; 0.4 kg/ha): 9G
6 | COCCc1nc(NC(=O)NS(=O)(=O)c2ccccc2C(=O)OC)nc(OC)n1 [drawing 541] | – | 9H | 6G | 9G | – | 9G | 10H | 9H | –
7 | COc1cc(C)nc(NC(=O)NS(=O)(=O)c2ccccc2C(=O)N(C)C)n1 [drawing 532] | 9H | 9H | 9H | 9G | 9G | 9G | 9H | 9H | –
8 | COC(=O)c1ccccc1S(=O)(=O)NC(=O)Nc1nc(C)cc(OC)n1 [drawing 480] | 9H | 9H | 9H | 9G | 9G | 9G | 10H | 9H | response rating ([10]; 0.4 kg/ha): 9H; response rating ([6]; 0.4 kg/ha): 9H
9 | COC(=O)c1ccccc1S(=O)(=O)NC(=O)Nc1ncccn1 [drawing 485] | – | – | – | – | – | – | – | – | response rating ([2]; 2 kg/ha): 9G; response rating ([4]; 2 kg/ha): 8G; response rating ([5]; 2 kg/ha): 9G; response rating ([6]; 2 kg/ha): 8G; response rating ([8]; 2 kg/ha): 9G; response rating ([9]; 2 kg/ha): 9G
10 | CCOCCSc1cc(C)nc(NC(=O)NS(=O)(=O)c2ccccc2C(=O)OC)n1 [drawing 536] | – | 9H | – | 9G | – | – | 9G | 9H | –
11 | COC(=O)c1ccccc1S(=O)(=O)NC(=O)Nc1nc(OC)cc(OC)n1 [drawing 481] | 9H | – | 9H | 9G | 9G | 9G | 9H | 9H | response rating ([10]; 0.4 kg/ha): 9H; response rating ([6]; 0.4 kg/ha): 9H
12 | COC(=O)c1cc(Cl)ccc1S(=O)(=O)NC(=O)Nc1nc(OC)cc(OC)n1 [drawing 433] | – | – | – | – | – | – | – | – | response rating [11]: 9C; response rating [12]: 6H; response rating [13]: 9C; response rating [14]: 10C; response rating [15]: 9C; response rating [16]: 10C; response rating [17]: 10C; response rating [18]: 9G
13 | COc1nc(C)nc(NC(=O)NS(=O)(=O)c2ccccc2C(=O)OC(C)Cc2ccccc2)n1 (stereo not shown) [drawing 524] | 9H | 9H | 9H | 9G | – | 9G | 9H | 9H | response rating ([6]; 0.4 kg/ha): 9H
14 | COc1cc(C)nc(NC(=O)NS(=O)(=O)c2ccccc2C(=O)SCc2ccccc2)n1 [drawing 542] | – | 9H | 9H | 9G | 9G | 8G | 9G | 9H | –
15 | COC(=O)c1ccccc1S(=O)(=O)NC(=O)Nc1nc(C)nc(N(C)C)n1 [drawing 539] | – | 9H | 9H | 9G | 8G | 9G | 9G | 9H | –
16 | COCCCOc1cc(C)nc(NC(=O)NS(=O)(=O)c2ccccc2C(=O)OC)n1 [drawing 537] | – | 9H | 9H | – | 8G | 9G | 9H | 9H | –
17 | CCCCOC(=O)c1ccccc1S(=O)(=O)NC(=O)Nc1nc(C)cc(OC)n1 [drawing 507] | 9H | 9H | 9H | 9G | 9G | 9G | 9G | 9H | response rating ([10]; 0.4 kg/ha): 7G; response rating ([1]; 2 kg/ha): 9H; response rating ([2]; 2 kg/ha): 9G; response rating ([3]; 2 kg/ha): 9H; response rating ([4]; 2 kg/ha): 9H; response rating ([5]; 2 kg/ha): 9H; response rating ([9]; 2 kg/ha): 9G
18 | COc1cc(C)nc(NC(=O)NS(=O)(=O)c2ccccc2C(=O)OCCCl)n1 [drawing 488] | 10H | 9H | 9H | 9C | 9C | 9G | 10H | 10H | –
19 | COc1cc(C)nc(NC(=O)NS(=O)(=O)c2ccccc2C(=O)NC(C)C)n1 [drawing 530] | 9H | 9H | 9H | 9G | 9G | 8G | 9H | 9H | response rating ([10]; 0.4 kg/ha): 9H
20 | COc1cc(C)nc(NC(=O)NS(=O)(=O)c2ccccc2C(=O)SC2CCCCC2)n1 [drawing 543] | 9H | 9H | 9H | 9H | 9G | 9G | 9G | 9H | –
21 | COc1nc(C)nc(NC(=O)NS(=O)(=O)c2ccccc2C(=O)OC2CCCCC2C)n1 (stereo not shown) | – | – | – | – | – | – | – | – | response rating [11]: 9C; response rating [12]: 10C; response rating [13]: 9C; response rating [15]: 9C; response rating [16]: 10C; response rating [17]: 9C
